The values below come from US5756538A, “Flavonoid and biflavonoid derivatives, their pharmaceutical compositions, their anxiolytic activity” (University of Strathclyde, priority 1993, dated 1998).

Like-named read-outs stand apart in the source and are kept apart here.

Series [1] has as its system mice. Description: Locomotor activity test (OPTO-VARIMEX). As for the experimental part: Male CF1 mice from our breeding stock weighing 28-35 g were used. The animals were placed in groups of 10-12 with free access to water and food, and maintained on a 12 h/12 h day-night cycle.
Diazepam (DZ; Hoffman-La Roche) and the flavonoids were dissolved in DMSO 40%, NaOH 0.1N (7:3: v/v) at pH 8.2 Control animals were injected with the same vehicle (VEH). RO 15-1788 (Hoffmann-La Roche) was suspended in DMSO 10%, propyleneglycol 10% in distilled water.
(c) Locomotor Activity Test: we used an OPTO-VARIMEX apparatus consisting of a glass box (36×15×20 cm) and two lateral bars with 15 light beams (0.32 cm diameter, beam spacing 2.65 cm). The apparatus detects automatically all the mouse movements, and discriminates between total and ambulatory activity. The locomotor activity (number of movements across the beams) was counted during 5 min. An increase in the number of transitions through the beams reflects an augmented locomotor activity.
The general procedure for all the tests is as follows: mice were injected with vehicle or the drug solution 20 min before the beginning of the test and put into another home cage. Ro 15-1788, a specific BZD receptor antagonist was injected 10 min before the tested drug. All the injections were given intraperitoneally (i.p.). Control mice were tested in each session, in parallel with those animals receiving the test drug or diazepam. Testing was carried out `blind`. All data were submitted to analysis of variance (ANOVA). Post-hoc comparisons between individual treatments and controls were made using Dunnett's t-test.
FIGS. 15, 16, 17 and 18 show ambulatory locomoter activity counts during a 5 min. test session in an OPTO-Varimex apparatus, 20 min. after i.p. injection with a mixture of brominated flavones (0.6,1,3 mg/kg), FIG. 15; 2' chlorinated chrysin (1,3 mg/kg); FIG. 16; 2' fluorinated chrysin (3 mg/kg), FIG. 17; 6,8 dibromoflavone, FIG. 18. Data are expressed as medians (interquartile range) of (n) number of animals.

The target of a further series is benzodiazepine receptor. Description: Competitive inhibition of 3H-flunitrazepam binding to benzodiazepine receptor (cerebral cortical membranes). Set-up: species or system bovine. As for the experimental part:
(Competitive inhibition of H^3 -flunitrazepam to benzodiazepine receptor)
Binding of 3H-flunitrazepam (0.7 nM) to the benzodiazepine receptor was carried out in extensively washed cerebral cortical membranes.
H^3 -flunitrazepam has a Ki of […] to the benzodiazepine receptor.
IC50 values were obtained using flavonoids at different concentrations (10^-10 to 10^-3 M).
Structure - activity relationships of several flavonoids on
the ^3 H Flunitrazepam binding to bovine brain membranes.

Series [2] has as its system locus coeruleus noradrenaline. Kind of series: Noradrenaline levels in locus coeruleus after immobilization stress. The format is in vivo, rats. To be noted: 1 mg/kg i.p., 30 min before 90-min stress session. On the procedure: Rats were submitted to a 90-minute immobilization stress session in a plastic cylinder. The locus coeruleus was dissected out after killing by decapitation and noradrenaline assessed by HPLC with electrochemical detection. Doses were 1 mg/kg for each substance, injected i.p., 30 minutes before the stress session.

The test system of series [3] is mice. Kind of series: PTZ induced seizures in mice (anticonvulsant activity). The series is classed as in vivo. As for the experimental part: (Induced seizures in mice)
Benzodiazepines in general show an anxiolytic effect, a sedative effect and an anticonvulsant effect. In order to assess the present compounds for anticonvulsant activity the following experiment was carried out.
The method of Medina et al Biochem.Pharm. 40 p2227-2231, (1990) was followed (with the exception that injections were carried out intraperitoneally) and the mice observed for seizures.
EFFECTS OF IP ADMINISTRATION OF APIGENIN ON PTZ
INDUCED SEIZURES IN MICE.
The convulsant doses of pentylenetetrazole are between 50-80 mg/kg in different experiments carried out in 6 independent days.

The subject of series [4] is mice. Description: Holeboard test (exploratory activity, sedation). The format is in vivo, mice (male CF1). On the procedure:
(b) Holeboard Test: consisted of a wood box (60×60×30 cm) with four 2 cm diameter holes equidistant in the floor. The number of head-dips and the time spent head-dipping were counted during 5 min. An increase in the number and the time spent head-dipping implies a greater exploratory activity.
(§1) All the injections were given intraperitoneally (i.p.). […] Testing was carried out `blind`. All data were submitted to analysis of variance (ANOVA).

In series [5] the test system is mice. Kind of series: Horizontal wire test (muscle relaxation). The series is classed as in vivo, mice (male CF1). As for the experimental part: (d) Horizontal Wire Test: It consisted of an horizontally strung wire (1 mm diameter, 15 cm long), placed at 20 cm from the table. Mice were lifted by the tail, allowed to grasp the wire with their forepaws and released. […] After two trials, performed at 5 min. intervals, the test took place. A myorelaxant drug, like diazepam at high doses, will impair the ability of mice to grasp the wire. Generally, this state of muscle relaxation is commonly associated with sedation.
as §1
The test took place after two trials, executed after a 5 min interval.

For series [6], the system named is mice. Kind of series: Elevated plus maze (anxiety). The format is in vivo, mice (male CF1). To be noted: for Total arm entries / Percentage of entries in the open arms / Percentage of the time spent on the open arms: 20 min after injection; for Total arm entries: 5 min test, mean ± S.E.M. As for the experimental part: (a) Elevated Plus Maze: consisted of 4 perpendicularly disposed wood arms (20×5 cm; two had 35 cm high wood walls, and two were open) linked by a central 10×10 cm square. The maze was suspended 50 cm from the room floor. Animals were placed on the central part of the maze facing a closed arm. This test has been widely validated to measure anxiety in rodents. The number of entries into and the time spent in the open and closed arms were counted during 5 min. […] Total exploratory activity (number of entries in both arms) was also determined.
as §1

Setting [7] is: bovine brain membranes, 0.7 nM 3H-flunitrazepam, read-out: 3H Flunitrazepam binding IC50.
Where [8] appears, read: 3H-flunitrazepam 0.7 nM, read-out: IC50 at the benzodiazepine receptor.

For 6,8 dibromoflavone, the “Ambulatory locomotor activity counts vs controls” value with mice [1] (i.p., dose not stated) is reported as “No significant difference”.

The IC50 is the midpoint of a concentration-inhibition curve. Regarding `O=c1cc(-c2ccccc2Cl)oc2cc(O)cc(O)c12` [2' chlorochrysin, 5,7-Dihydroxy-2'-chloroflavone], the “Ambulatory locomotor activity counts vs controls” value in the series on mice [1] (1, 3 mg/kg i.p., 20 min after injection, 5 min session) is reported as “No significant difference”. Moreover, the half-inhibitory concentration (IC50) on benzodiazepine receptor (setting [7]) is 9000 nM.

In the case of `O=c1cc(-c2ccccc2F)oc2cc(O)cc(O)c12` [2' fluorochrysin, 5,7-Dihydroxy-2'-fluoroflavone], in the series on mice [1] (3 mg/kg i.p., 20 min after injection, 5 min session), the “Ambulatory locomotor activity counts vs controls” value is “No significant difference”. For the same compound, the IC50 on benzodiazepine receptor (setting [7]) was 8000 nM.

As for `COc1cc(O)c2c(=O)cc(-c3ccccc3)oc2c1` [5 hydroxy 7 methoxyflavone, 5-hydroxy-7-methoxyflavone], the 50% inhibitory concentration (IC50) on benzodiazepine receptor (setting [7]) came out at 46000 nM.

Take `O=c1cc(-c2ccccc2)oc2c(Br)c(O)c(Br)c(O)c12` [6,8 dibromochrysin, 6,8-Dibromo-5,7-dihydroxyflavone]: in the series with benzodiazepine receptor, the “Benzodiazepine ligand behaviour / affinity relative to 3H-flunitrazepam” value was “benzodiazepine ligand behaviour similar to that of ^3 H-flunitrazepam”. Moreover, the concentration for half-maximal inhibition (IC50) is 700 to 3000 nM at benzodiazepine receptor (setting [8]) and 700 nM at benzodiazepine receptor (setting [7]).

For `O=c1cc(-c2ccccc2)oc2cc(Br)ccc12` [7-bromoflavone], in the series with mice [1] (i.p., dose not stated), the “Ambulatory locomotor activity counts vs controls” value is “No significant change”. Besides, the “Benzodiazepine ligand behaviour / affinity relative to 3H-flunitrazepam” value with benzodiazepine receptor is recorded as “far higher affinity for the benzodiazepine receptor”. For the same compound, the IC50 at benzodiazepine receptor (setting [8]) and on benzodiazepine receptor (setting [7]) was 50 nM in each case.

`O=c1cc(-c2ccc(O)c(-c3c(O)cc(O)c4c(=O)cc(-c5ccc(O)cc5)oc34)c2)oc2cc(O)cc(O)c12` [Amentoflavone]: the “Benzodiazepine ligand behaviour / affinity relative to 3H-flunitrazepam” value in the series on benzodiazepine receptor is reported as “far higher affinity for the benzodiazepine receptor”. For the same compound, the concentration for half-maximal inhibition (IC50) on benzodiazepine receptor (setting [8]) and at benzodiazepine receptor (setting [7]) was 10 nM in each case.

Consider `O=c1cc(-c2ccc(O)cc2)oc2cc(O)cc(O)c12` [Apigenin, 4', 5,7-trihydroxyflavone], for which the “Noradrenaline decrease in locus coeruleus provoked by immobilization stress” value is reported as “blocked almost completely the noradrenaline decrease” in series [2] and “dampened the noradrenaline decrease” in series [2] (listed as apigenin). For the same compound, the “Potency vs diazepam on stress-provoked noradrenaline decrease” value in series [2] was “most potent effect”. Moreover, the “Number of animals with clonic convulsions” value in the series with mice [3] (3 mg/kg i.p. + PTZ) is listed as 8/8; in the series with mice [3] (20 mg/kg i.p. + PTZ) it was 3/3; in the series with mice [3] (40 mg/kg i.p. + PTZ), 12/14; in the series with mice [3] (80 mg/kg i.p. + PTZ) it was 11/11. In addition, the Anticonvulsant activity entry with mice [3] (i.p., PTZ induced seizures) is listed as “no anticonvulsant activity”. For the same compound, the “Effect in the holeboard test” value with mice [4] (3 and 10 mg/kg i.p.) is “did not induce any effect”. For the same compound, in the series on benzodiazepine receptor, the “Benzodiazepine ligand behaviour / affinity relative to 3H-flunitrazepam” value is “benzodiazepine ligand behaviour similar to that of ^3 H-flunitrazepam”. For the same compound, the half-inhibitory concentration (IC50) was 700 to 3000 nM on benzodiazepine receptor (setting [8]) and 3000 nM at benzodiazepine receptor (setting [7]). The “Effect in the horizontal wire test” value with mice [5] (3 and 10 mg/kg i.p.) is “did not induce any effect”. Besides, in the series with mice [6] (i.p.), the “Anxiolytic effect in the elevated plus maze” value is “shows anxiolytic effects”.

Consider `CN1C(=O)CN=C(c2ccccc2)c2cc(Cl)ccc21` [Diazepam, reference compound], for which the “Number of animals with clonic convulsions” value with mice [3] (3 mg/kg i.p. + PTZ) is listed as 0/6. The Number of head-dips entry with mice [4] (0.3 mg/kg i.p.) is “increased the number of head-dips (p<0.05)”; in the series on mice [4] (6 mg/kg i.p.) it was “decrease in both the number of head-dips and in the time spent head-dipping (p<0.01)”. Besides, the Time spent head-dipping result is “increased the time spent head-dipping(p<0.01)” in the series with mice [4] (1 mg/kg i.p.); “decrease in both the number of head-dips and in the time spent head-dipping (p<0.01)” in the series with mice [4] (6 mg/kg i.p.). Moreover, the Sedation entry in the series with mice [4] (6 mg/kg i.p.) is “indicates sedation”. In addition, the Locomotor activity result with mice [1] (0.3-3 mg/kg i.p., 20 min after injection) is “increasing locomotor activity”. Further, the “Percentage of animals grasping the horizontal wire” value with mice [5] (6 mg/kg i.p.) is listed as “significantly decreased”. Besides, the Total arm entries in the series with mice [6] (0.3 mg/kg i.p.) is on record as 10.5 ± 0.8; in the series with mice [6] (0.6 mg/kg i.p.), 12.4 ± 1.9. Also, the “Percentage of entries in the open arms” value in the series on mice [6] (0.3 and 0.6 mg/kg i.p.) is “increased the percentage of entries in the open arms (p<0.01)”. Further, in the series with mice [6] (0.3 and 0.6 mg/kg i.p.), the “Percentage of the time spent on the open arms” value is given as “the percentage of the time spent on the open arms (p<0.01)”. Moreover, the “Anxiolytic effect in the elevated plus maze” value in the series on mice [6] (i.p.) was “displayed an anxiolytic effect”. Besides, the “Total arm entries, difference from controls” value with mice [6] (i.p., doses of Table I) is recorded as “No differences were observed”.

In the case of `O=c1cc(-c2ccccc2)oc2ccccc12` [Flavone, 2-phenyl-4H-1-benzopyran-4-one], the “Benzodiazepine ligand behaviour / affinity relative to 3H-flunitrazepam” value with benzodiazepine receptor is recorded as “benzodiazepine ligand behaviour similar to that of ^3 H-flunitrazepam”. Also, the IC50 at benzodiazepine receptor (setting [8]) lay within 700 to 3000 nM. Besides, the IC50 on benzodiazepine receptor (setting [7]) was found to be 1000 nM. Also, in the series on mice [6] (1 mg/kg i.p.), the “Percentage of entries in the open arms” value was “increased the percentage of entries and time spent in the open arms (p<0.002)”; the “Percentage of the time spent on the open arms” value was “increased the percentage of entries and time spent in the open arms (p<0.002)”.

Turning to `COc1cc(O)c2c(=O)cc(-c3ccc(OC)c(-c4c(O)cc(O)c5c(=O)cc(-c6ccc(O)cc6)oc45)c3)oc2c1` [Ginkgetin], at benzodiazepine receptor (setting [7]), the IC50 is 5000 nM.

The Ki is the equilibrium dissociation constant of an inhibitor or competing ligand from its target. Higher therefore signals lower affinity. On benzodiazepine receptor, `CN1C(=O)CN=C(c2ccccc2F)c2cc([N+](=O)[O-])ccc21` [H^3 -flunitrazepam, reference compound] had a Ki of 3 nM.

Consider `COc1ccc(-c2cc(=O)c3c(O)cc(O)c(-c4cc(-c5cc(=O)c6c(O)cc(O)cc6o5)ccc4OC)c3o2)cc1` [Isoginkgetin], for which the half-maximal inhibitory concentration (IC50) at benzodiazepine receptor (setting [7]) was in the range of 4000 to 5000 nM.

For the compound `O=c1c(O[C@@H]2O[C@H](CO)[C@@H](O)[C@H](O)[C@H]2O)c(-c2ccc(O)c(O)c2)oc2cc(O)cc(O)c12` [Isoquercetin, reference compound], the IC50 at benzodiazepine receptor (setting [7]) turned out to be 10000 nM.

As for `O=c1c(O[C@@H]2O[C@H](CO)[C@@H](O)[C@H](O)[C@H]2O)c(-c2ccc(O)c(O)c2)oc2cc(O)cc(O)c12` [Isoquercitrin, reference compound], the IC50 on benzodiazepine receptor (setting [7]) turned out to be 80000 nM.

With `C[C@@H]1O[C@@H](OC[C@H]2O[C@@H](Oc3c(-c4ccc(O)c(O)c4)oc4cc(O)cc(O)c4c3=O)[C@H](O)[C@@H](O)[C@@H]2O)[C@H](O)[C@H](O)[C@H]1O` [Rutin, reference compound], the IC50 on benzodiazepine receptor (setting [7]) is 60000 nM.

On to `O=C1CC(c2ccccc2)Oc2ccccc21` (centres unmarked) [flavanone, reference compound], for which the half-inhibitory concentration (IC50) at benzodiazepine receptor (setting [7]) was 40000 nM.
